Test [1] addresses T1, ShHTL7 (Striga hermonthica, UniProt A0A0M3PNA2). The experiment in a line: Yoshimulactone Green (YLG) hydrolysis analysis. The format is biochemical. The note with it: for IC50: pre-incubation 30 min, 1 μM YLG 60 min. The procedure: (§1) For measuring the hydrolysis of YLG in vitro, 10 μg of purified ShHTL7, AtD14 and OsD14 in a reaction buffer (1×PBS) containing 0.1% dimethyl sulfoxide (DMSO) in a total volume of 100 μL in 96-well black plate (Greiner) were used. To measure the fluorescent intensity, SpectraMax i3 (Molecular Devices) with an excitation wavelength of 480 nm and a detection wavelength of 520 nm were used. Purified proteins were mixed with Triton X-100, using serial dilutions with concentrations ranging from 5 μM to 4.87 nM. Proteins were pre-incubated with Tritone X-100 for 30 min, followed by incubation with 1 μM YLG (Tokyo Chemical Industry Co. Ltd., product number E1238) for 60 min. Fluorescence values measured in the void control were subtracted from those obtained in the presence of protein. Curves and IC50 values were plotted using Graph pad (PRISM 6) four-parameter logistic curve.

Test [2] concerns the target T1, ShHTL7. The experiment in a line: Intrinsic Triton X-100 fluorescence binding assay. The procedure: cDNA fragments, encoding the S. hermonthica ShHTL7 or the mutated version S95C (in which the serine in the active triad was changed to cysteine) flanked with BamHI and XhoI restriction sites, were cloned into the pGEX-6P1 (GE Healthcare) expression vector that enables the expression of GST fusion protein, using the corresponding restriction sites, as shown in Table 1 below. The plasmid obtained was then transformed into BL21 (DE3) E. coli cells. Cells were grown in LB medium at 37° C., and protein expression was induced at OD 0.6 at λ=600 nm by adding 150 μM isopropyl β-D-1-thiogalactopyranoside (IPTG). After induction, cultures were grown at 16° C. overnight under shaking. […]
Purified proteins (at concentrations of […] to 5 μM) were incubated with 1.54 μM of Triton X-100 for 2 h. Since Triton X-100 has an excitation and emission wavelength of 275 nm and 302 nm, fluorescence was measured at the corresponding wavelengths using SpectraMax i3 (Molecular Devices). […] Data were normalized to the background fluorescence from the protein and values obtained in absence of proteins were subtracted, to determine changes in Triton X-100 fluorescence intensity. Kd values were determined by plotting changes in Triton X-100 fluorescence intensity against the concentration of the protein, using the single binding site model implemented in Graph pad (PRISM 6).

The target of test [3] is T2, AtD14 (Arabidopsis thaliana, UniProt Q9SQR3).
T2 construct: made in house
T2 sequence (Q9SQR3 1-267): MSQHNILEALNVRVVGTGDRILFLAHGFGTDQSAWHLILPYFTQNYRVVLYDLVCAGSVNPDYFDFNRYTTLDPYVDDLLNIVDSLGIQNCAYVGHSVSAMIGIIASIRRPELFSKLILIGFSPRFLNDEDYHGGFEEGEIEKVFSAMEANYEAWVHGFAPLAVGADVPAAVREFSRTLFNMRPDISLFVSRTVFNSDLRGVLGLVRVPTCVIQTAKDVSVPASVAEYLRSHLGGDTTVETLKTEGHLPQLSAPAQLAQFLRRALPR
Nature of the test: Intrinsic Triton X-100 fluorescence binding assay. Further details: species or system A. thaliana. The note with it: AtD14 concentrations up to 10 μM. The procedure: (§2) Since Triton X-100 has an excitation and emission wavelength of 275 nm and 302 nm, fluorescence was measured at the corresponding wavelengths using SpectraMax i3 (Molecular Devices). […] Data were normalized to the background fluorescence from the protein and values obtained in absence of proteins were subtracted, to determine changes in Triton X-100 fluorescence intensity. Kd values were determined by plotting changes in Triton X-100 fluorescence intensity against the concentration of the protein, using the single binding site model implemented in Graph pad (PRISM 6).

Test [4] concerns the target T3, OsD14 (Oryza sativa subsp. japonica, UniProt Q10QA5).
T3 construct: made in house
T3 sequence (Q10QA5 1-318): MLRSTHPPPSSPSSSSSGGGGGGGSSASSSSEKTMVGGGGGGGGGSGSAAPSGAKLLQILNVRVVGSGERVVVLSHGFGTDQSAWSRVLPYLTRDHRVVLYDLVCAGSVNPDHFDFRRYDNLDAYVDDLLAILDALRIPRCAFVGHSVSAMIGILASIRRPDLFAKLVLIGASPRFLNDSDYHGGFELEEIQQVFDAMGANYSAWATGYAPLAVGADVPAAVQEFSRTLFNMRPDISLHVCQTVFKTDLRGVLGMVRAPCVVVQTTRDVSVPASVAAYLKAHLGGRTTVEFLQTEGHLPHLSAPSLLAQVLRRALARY
The experiment in a line: Intrinsic Triton X-100 fluorescence binding assay. Further details: species or system rice. The note with it: OsD14 concentrations up to 10 μM. The procedure:
as §2

Test [5] addresses T2, AtD14. The experiment in a line: Yoshimulactone Green (YLG) hydrolysis analysis. It counts as biochemical, A. thaliana. The procedure:
as §1, with “Purified proteins were mixed with Triton X-100, using serial dilutions with concentrations ranging from 5 μM to 4.87 nM.” left out

The target in test [6] is T3, OsD14. The experiment in a line: Yoshimulactone Green (YLG) hydrolysis analysis. The format is biochemical, rice. The procedure: as §1, with “Purified proteins were mixed with Triton X-100, using serial dilutions with concentrations ranging from 5 μM to 4.87 nM.” left out
In test [7] the test system is ShHTL7 L143Y mutant. Nature of the test: Yoshimulactone Green (YLG) hydrolysis analysis. It counts as biochemical, Striga hermonthica.
Test [8] addresses T1, ShHTL7. The experiment in a line: Differential static light scattering (DSLS), aggregation temperature. The format is binding. The note with it: following pre-incubation; varying Triton concentrations. The procedure:
The specific aggregation temperature, Tagg, was determined using DSLS on the Stargazer system (Harbinger Biotechnology and Engineering Corporation, Markham, Canada). For this purpose, purified protein (1 mg/mL) was overlaid with mineral oil in a clear bottom 384-well black plate (Corning), and temperature was increased from 20 to 95° C. with a ratio of 1° C./min. A CCD camera was used to detect light scattering every 0.5° C. in the presence or absence of varying concentrations of Triton X-100, unraveling X-100 concentration-dependent changes in aggregation temperature (ShHTL7 ΔTagg). Data were normalized, and ΔTagg was plotted against the Triton X-100 concentration. Resulting data were plotted to determine the change in Tagg of ShHTL7 upon binding to Triton X-100 using Graph pad (PRISM 6).

Test [9] relates to Striga hermonthica seeds. The experiment in a line: Striga hermonthica germination assay (GR24-induced). The format is in vivo. The procedure: Striga hermonthica germination bioassays were carried out using Striga seeds collected from a Sorghum bicolor field in Sudan. About 50-100 dry Striga washed and sterilized seeds were distributed on a 9-mm diameter glass fiber filter paper discs (Sartorius, Goettingen Germany). Discs were then placed in 9-cm diameter petri-dishes (12 discs per petri-dish) on filter paper (Whatman, Maidstone, UK) moistened with 3 mL sterilized water. The petri-dishes were sealed with parafilm, wrapped with aluminum foil and incubated in growth chambers at 30° C. for 10 days for preconditioning. On the 11th day, discs were air dried in laminar flow cabinet and transferred to 9-cm petri-dishes (four discs in each plate), which contained 9-mm diameter glass fiber filter paper rings, moistened with 900 μL sterile MilliQ water. The pre-conditioned Striga seeds were treated with Triton X-100 at concentrations of 15.4 μM (0.001%) and 1.54 μM (0.0001%) along with GR24 at 1 nM, 0.5 nM, 0.25 nM and 0.125 nM respectively. Triton X-100/GR24 mixtures were applied (50 μl per disc) in four replicates. Corresponding volumes of GR24 and sterile MilliQ water were included as positive and negative control, respectively. The petri-dishes were sealed with parafilm, enfolded with aluminum foil and incubated for 48 h at 30° C. The germinated (seeds with radicle emerging through the seed coat) and non-germinated Striga seeds were recorded under a binocular and germination percentage was calculated.

For test [10], the system named is rice seeds cv. Nipponbare. The format is in vivo. The note with it: Striga germination vs rice growth. The procedure:
The rice seeds cv. Nipponbare were surface-sterilized using 50 ml (2.5%) sodium hypochlorite with 0.4% of Tween-20 for 15 min. After six subsequent washing steps with sterilized water, the rice seeds were kept in water at 30° C. for overnight imbibition. About 2 ml of dilutions of Triton X-100 at 15.4 μM, 1.54 μM in sterile MilliQ water (control) was added in 24-well plates with six replications. One sterilized rice seed was put in each well and allowed to germinate for 48 h at 30° C. The germinated (radicle emergence) and non-germinated seeds were recorded and germination percentage was calculated. Then same seeds were allowed to grow under light in growth cabinet for another one week. The length of one week old seedlings was measured with a roller and averaged.

The target in test [11] is T1, ShHTL7. The note with it: read-out: Kd of ShHTL7 and GR24.
The target in test [12] is T1, ShHTL7. The note with it: A. thaliana line expressing ShHTL7; cited from earlier work.

The values below come from patent US11324216B2, “Methods for controlling root parasitic weeds: inhibitors of seed germination in Striga” (King Abdullah University of Science and Technology, priority 2017, dated 2022).

Read-outs that look alike come from different tables or passages of the source.

T1 sequence (A0A0M3PNA2 entry or part of it): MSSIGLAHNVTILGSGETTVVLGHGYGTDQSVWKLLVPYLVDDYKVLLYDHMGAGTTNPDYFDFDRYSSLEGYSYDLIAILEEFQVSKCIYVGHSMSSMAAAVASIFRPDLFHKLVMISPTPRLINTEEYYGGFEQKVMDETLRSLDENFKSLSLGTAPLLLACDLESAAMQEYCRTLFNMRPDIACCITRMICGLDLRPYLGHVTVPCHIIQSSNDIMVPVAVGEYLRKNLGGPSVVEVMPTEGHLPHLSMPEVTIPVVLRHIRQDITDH

`CC(C)(C)CC(C)(C)c1ccc(OCCO)cc1` [4-ter-octylphenol Monoethoxylate]: in [1], the half-maximal inhibitory concentration (IC50) is 9200 ± 3200 nM.
Consider “polyethylene glycol tert-octylphenyl ether [Triton X-100]”, for which the “Affinity of Triton for ShHTL7 relative to GR24” value in [2] (Kd 31 nM vs Kd 440 nM) is given as “about ten times higher affinity”. Further, in test [2] (following pre-incubation 2 h or more, intrinsic Triton fluorescence, read-out: Kd between Triton and ShHTL7), the Kd was 31 nM. Further, in test [3], the “Change in Triton fluorescence with AtD14” value is given as “No change in Triton fluorescence”. For the same compound, the “Change in Triton fluorescence with OsD14” value in [4] was “No change in Triton fluorescence”. Also, in test [1], inhibition was half-maximal at 470 ± 110 nM (IC50). In addition, the “Inhibition of YLG hydrolysis by AtD14” value in test [5] (10 μM Triton) is listed as “around 10%”. Besides, in test [5] (up to 0.5 μM Triton), the “Effect on YLG hydrolysis by AtD14” value is reported as “did not affect”. Also, the “Inhibition of YLG hydrolysis by OsD14” value in test [6] (10 μM Triton) was “around 10%”. For the same compound, the “Effect on YLG hydrolysis by OsD14” value in test [6] (up to 0.5 μM Triton) is recorded as “did not affect”. In [7], the “Inhibition of YLG hydrolysis by ShHTL7 L143Y mutant” value was “failed to inhibit”. In addition, the “Aggregation temperature (Tagg) of ShHTL7” value in test [8] is “aggregation temperature increases in a Triton concentration-dependent manner”. In addition, the “Inhibition of GR24-induced S. hermonthica germination” value in [9] (1.54 μM Triton X-100) and in test [9] (15.4 μM Triton X-100) was “significantly inhibiting” throughout. In addition, the “Inhibition of S. hermonthica germination” value in test [9] (maximum inhibition) is recorded as “up to 90%”. For the same compound, the “Triton concentrations inhibiting S. hermonthica germination relative to concentrations that affect rice growth” value in [10] is on record as “five orders of magnitude lower”.
Regarding `CC1=C[C@H](O/C=C2/C(=O)O[C@@H]3c4ccccc4C[C@H]23)OC1=O` [GR24], the Kd in [11] is 440 nM. Further, in [12], the “GR24 concentration triggering germination” value was “picomolar concentrations”.
In test [1], `CC(C)(C)CC(C)(C)c1ccc(OCCOCCO)cc1` [4-ter-octylphenol diethoxylate] gave an IC50 of 7500 ± 2100 nM.
Regarding `CC(C)(C)CC(C)(C)c1ccc(OCC(=O)O)cc1` [2-[4-(2,4,4-trimethylpentan-2-yl)phenoxy]acetic acid], the “Inhibitory effect on ShHTL7 catalyzed hydrolysis of YLG” value in test [1] (in words) is on record as “clear inhibitory effect”. This compound returned an IC50 in test [1] of 1500 ± 410 nM.
